How the values were obtained:
hemorrhagic shock = type: in vivo, rats
Method: Two studies of resuscitation by albumin after hemorrhage were performed. In the first study, resuscitation by a crystalloid (control) was compared to resuscitation with either a bolus of bovine serum albumin (BSA) saturated with oleic acid (OA-BSA) or a bolus of NEFA-free albumin, followed by crystalloid, as needed. As commercially available pharmaceutical grade albumin is human albumin (HSA) that is nearly saturated with caprylic acid, instead of oleic acid, in the second study OA-BSA, caprylic acid-saturated BSA (CA-BSA), and pharmaceutical grade human serum albumin (HSA) were compared. A crystalloid-only group (“Crystalloid Only Group”) was also run as a control. […] There were no significant differences among the Albumin Groups (all containing high concentrations of NEFA) in any of the other measurements.
Laparotomy was performed to induce trauma, then the opening was covered with plastic wrap. The right hind leg was elevated and an inflatable tourniquet (digit cuff, Hokanson, Bellevue, WA) was positioned on the leg, but not yet inflated. For the second albumin study, isoflurane was lowered to 1% immediately before start of hemorrhage. Rats were hemorrhaged (2 ml/min/kg BW) by syringe pump until MAP dropped to 35 mmHg (designated as time T=0 h). At that time, the tourniquet was inflated using a Portable Tourniquet System (Delfi Medical, Vancouver, Canada), representing first aid. The controlled hemorrhage rate was then reduced to 0.6 ml/min/kg to simulate hemorrhage not controlled by tourniquet (e.g., from another injury site or imperfect application). Blood pressure was maintained at 33-38 mmHg by adjusting the draw rate (0.2-0.8 ml/min/kg), until the total hemorrhage reached 27 ml/kg. […] The bolus size was chosen as the estimated dosage needed to replace the albumin lost to hemorrhage. […] At T=2 h, representing the maximum recommended time before conversion to hemostatic dressing 16, the tourniquet was deflated and removed. Surviving animals were euthanized at T=4 h by intravenous administration of 0.2 ml of sodium pentobarbital euthanasia solution (Beuthanasia, Merck Animal Health, Madison, NJ), while still under anesthesia. After euthanasia, the right lung was harvested for moisture analysis (MA160, Sartorious, Bohemia, NY) and the left lung for collection of BALF (3X bronchoalveolar lavage fluid with 3 ml saline). Following the final lavage, the left lung was infused with formalin fixative for histological analysis. The liver, heart, spleen, kidney, and jejunum were also collected and fixed in formalin for histological analysis.

[1] = tested on: Trauma and 27 ml/kg hemorrhagic shock; assay: Second albumin study: trauma and 27 ml/kg hemorrhagic shock model, albumin bolus then crystalloid as needed; type: in vivo
Method: Rats were acclimated for at least 5 days after arrival at the facility prior to experimental procedures. Trauma and 27 ml/kg hemorrhagic shock models in the art were used with some modifications: 1) an extended observation period considered entirely pre-hospital to represent prolonged field care and 2) a reduction in isoflurane during hemorrhage, intended to reduce the mortality prior to resuscitation (FIG. 28). Rats were assigned into 4 treatment groups: Crystalloid (N=15), OA-saturated BSA (OA-BSA; N=17), CA-saturated BSA (CA-BSA; N=17), and pharmaceutical HSA (N=17). Adult, male Sprague Dawley rats (Charles River Laboratories, Houston, TX) between 325 and 400 g in body weight (BW) were induced with isoflurane (4%) in medical air, then maintained at 2-3% throughout instrumentation. Core temperature was maintained (36-37° C.) using a heating pad and monitored with a rectal probe (Physitemp, Clifton, NJ). The carotid artery was cannulated for continuous pressure recording, the left femoral artery for controlled hemorrhage, and the left femoral vein for blood sampling and resuscitation fluid administration. PE50 tubing for vessel cannulations was soaked overnight in heparin to reduce clotting.
Laparotomy was performed to induce trauma, then the opening was covered with plastic wrap. […]

Substance	amount of resuscitation fluid required to keep pressure at a sufficient level (hemorrhagic shock; first study) [mL/kg]	effect on pressure relative to OA-BSA and Crystalloid Only Group (hemorrhagic shock; first study)	vascular leakage (hemorrhagic shock; rat, in vivo)	loss of protein from the circulation (plasma/total protein T2 to T4) ([1]; rat, in vivo)	significantly reduced mortality compared to the Crystalloid Only Group (hemorrhagic shock; first study)	mortality (hemorrhagic shock; first study, FIG. 4) [%]	loss of protein from the circulation (plasma/total protein T2 to T4) ([1]; second study, FIG. 2 and FIG. 3)
NEFA-free albumin: albumin preparation with a NEFA content of 0-0.14% by weight of albumin; bovine serum albumin in the experiments	46	intermediate between the other two groups	did not cause vascular leakage	–	–	–	–
OA-BSA: bovine serum albumin (BSA) saturated with oleic acid, 25% bolus	6	–	–	significant drop	significantly reduced mortality	8	–
CA-BSA: caprylic acid-saturated BSA	–	–	–	–	–	–	significant drop

Reference: patent US20250367268A1, “Compositions and Methods for Treating Internal Bleeding and Hemorrhage” (priority 2024, published 2025)
